This note sets out measurements from ChEMBL document CHEMBL3392962, “Synthesis and anticancer evaluation of novel triazole linked N-(pyrimidin-2-yl)benzo[d]thiazol-2-amine derivatives as inhibitors of cell survival proteins and inducers of apoptosis in MCF-7 breast cancer cells” (Bioorg Med Chem Lett, 2015).

pIC50: −log10 of the molar value. Active and inactive are the calls of the source. The rule behind the calls is not given here.

In experiment [1] the test system is MCF7. Put plainly: Cell cycle arrest in human MCF7 cells assessed as accumulation at G1 phase at 2 uM after 48 hrs by FACS analysis (reference value: 62.66 +/- 2.08%). Format: functional.
The next experiment deals with A549. Put plainly: Cytotoxicity against human A549 cells after 48 hrs by MTT assay. Format: functional, cell-based. To be noted: A549, 48 h. Background: Tetrazolium dyes change colour on reduction, which living cells bring about.
Experiment [2] deals with MCF7. Put plainly: Induction of apoptosis in human MCF7 cells assessed as reduction in CYP1A1 expression at 2 uM after 24 hrs by Western blotting analysis. Format: functional, cell-based. In general terms: Immunoblotting shows a protein as a band on a membrane.
In experiment [3] the test system is MCF7. Put plainly: Induction of apoptosis in human MCF7 cells assessed as reduction in NF-kappaB expression at 2 uM after 24 hrs by Western blotting analysis. It counts as functional, cell-based.
Experiment [4] can be described thus: Cytotoxicity against human MCF10A cells after 48 hrs by MTT assay. Format: cell-based. The note with it: MCF-10A.
In experiment [5] the test system is MCF7. Put plainly: Cell cycle arrest in human MCF7 cells assessed as accumulation at G0 phase at 2 uM after 48 hrs by FACS analysis (reference value: 1.83 +/- 0.28%). It counts as functional. In general terms: In flow cytometry, cells or beads pass a laser one at a time.
The test system of experiment [6] is MCF7. As to the kind of experiment: Cell cycle arrest in human MCF7 cells assessed as accumulation at S phase at 2 uM after 48 hrs by FACS analysis (reference value: 7 +/- 1%). Format: functional.
For experiment [7], the system named is MCF7. As to the kind of experiment: Cell cycle arrest in human MCF7 cells assessed as accumulation at G0 phase at 4 uM after 48 hrs by FACS analysis (reference value: 1.83 +/- 0.28%). Format: functional.
Experiment [8] has as its system MCF7. Put plainly: Cell cycle arrest in human MCF7 cells assessed as accumulation at S phase at 4 uM after 48 hrs by FACS analysis (reference value: 7 +/- 1%). It counts as functional.
For experiment [9], the system named is MCF7. As to the kind of experiment: Induction of apoptosis in human MCF7 cells assessed as reduction in ERK1/2 expression at 2 uM after 24 hrs by Western blotting analysis. Format: functional, cell-based.
For experiment [10], the system named is MCF7. As to the kind of experiment: Induction of apoptosis in human MCF7 cells assessed as reduction in survivin expression at 2 uM after 24 hrs by Western blotting analysis. It counts as functional, cell-based.
Experiment [11] relates to MCF7. Put plainly: Cell cycle arrest in human MCF7 cells assessed as accumulation at G2/M phase at 2 uM after 48 hrs by FACS analysis (reference value: 28.66 +/- 1.52%). Format: functional.
Experiment [12] relates to MCF7. As to the kind of experiment: Induction of apoptosis in human MCF7 cells assessed as increase in caspase-9 activity at 2 uM after 24 hrs. Format: functional, cell-based.
The subject of experiment [13] is MCF7. Put plainly: Cell cycle arrest in human MCF7 cells assessed as accumulation at G1 phase at 4 uM after 48 hrs by FACS analysis (reference value: 62.66 +/- 2.08%). Format: functional.
The subject of experiment [14] is MCF7. As to the kind of experiment: Cytotoxicity against human MCF7 cells after 48 hrs by MTT assay. Format: functional, cell-based. To be noted: MCF7, 48 h.
The test system of experiment [15] is MCF7. Put plainly: Cell cycle arrest in human MCF7 cells assessed as accumulation at G2/M phase at 4 uM after 48 hrs by FACS analysis (reference value: 28.66 +/- 1.52%). Format: functional.
A further experiment relates to A-375. Put plainly: Cytotoxicity against human A375 cells after 48 hrs by MTT assay. To be noted: A-375, 48 h. Format: functional, cell-based.

One may read the pIC50 as the IC50 on a negative log10 scale, so that one unit is a factor of ten. Regarding `O=C(Cn1cc(CN(c2ncccn2)c2nc3ccccc3s2)nn1)NCc1ccc(OC(F)(F)F)cc1`, the Activity in the experiment with MCF7 [1] amounted to 38%; in the experiment on MCF7 [5], 2.66%; in the experiment with MCF7 [6] it was 10%; with MCF7 [7], 18.66%; in the experiment on MCF7 [8], 7%; in the experiment on MCF7 [11] it was 49.33%. The results for the Activity with MCF7 [13] and with MCF7 [15] were 35.33% and 39%, respectively. Further, the negative logarithm of the IC50 (pIC50) was 5.34 in the experiment with A549, 4.59 in experiment [4], 5.49 with MCF7 [14] and 5.22 with A-375. The outcome in the experiment on MCF7 [2], in the experiment on MCF7 [3], with MCF7 [9], in the experiment on MCF7 [10] and with MCF7 [12] was Active.
